Measured values reported in US20050203011A1, “Mitigating symptoms and behaviors of substance abuse by modulating GDNF or BDNF pathway activity” (The Regents of the University of California, priority 2003, published 2005).

Assays:
[1] = system: tyrosine hydroxylase (TH); test: Tyrosine hydroxylase (TH) protein levels in SHSY5Y cells; assay type: cell-based, human; settings: 100 mM ethanol 24 hours, GDNF 100 ng/ml or ibogaine 10 μM added for last 12 hours
Description: Panel A: SHSY5Y cells were treated with different concentrations (0, 10, 25, and 100 mM) of ethanol for 24 hours. TH protein levels and control Actin levels were determined by Western blot analysis. Histogram depicts the mean ratio (TI/actin)±SD of 3 experiments. Panel B: Cells were treated with media (control), 100 ng/ml of GDNF for 12 h (lane 1), 100 mM ethanol for 24 hours (lane 2), or 100 mM ethanol for 24 hours to which 100 ng/ml GDNF was added for the last 12 hours (lane 3). The cells were lysed for Western blot analysis. Histogram depicts the mean ratio (TH/actin)±SD of 3 experiments. […] Histogram depicts the mean ratio (TH/actin)±SD of 3 experiments.

[2] = system: Ret association with GFRα1; test: Ret association with GFRα1 in SHSY5Y cells (immunoprecipitation, Western blot); assay type: cell-based, human; settings: 3 hours
Description: (§1) Expression of GDNF and control Actin were analyzed by RT-PCR (n=4). […] GDNF in the media was detected by an ELISA assay. Histogram depicts the mean±SD of GDNF secretion in 3 experiments. […] Ret was immunoprecipitated with anti-Ret antibodies followed by Western blot analysis with anti GFRα1 antibodies. The levels of GFRα1 in the homogenates were determined by Western blot analysis (n=3). […] Ret was immunoprecipitated followed by Western blot analysis with anti-phospho tyrosine or anti-Ret antibodies (n=3). […] Trk phosphorylation was analyzed by Western blot analysis with anti-phospho-Trk antibodies. The levels of TrkB were also determined by Western blot analysis (n=3). Panel F: Cells were pre-incubated with 0.3 unit/ml PI-PLC for 1 h (lanes 3 and 4). […] Ret phosphorylation was determined as described above (n=4). […] Treatment with 50 ng/ml GDNF was used as a positive control (lane 5). The cells were lysed and Ret phosphorylation was analyzed as described above (n=3).
(§2) Cells were collected and lysed in RIPA buffer (50 mM Tris-Cl, pH 7.6, 150 mM NaCl, 1 % NP40, 0.1% SDS, 0.5% sodium deoxycholate, 2 mM EDTA, protease inhibitor cocktail and 10 mM sodium orthovanadate). Homogenates were incubated with 5 N^og anti-Ret antibody in TBS-T buffer (20 mM Tris-Cl, pH7.6, 137 mM NaCl and 1% NP-40) overnight at 4° C., followed by 2 hours incubation with Protein G agarose. […]

[3] = system: Trk; test: Trk phosphorylation in SHSY5Y cells; assay type: cell-based, human; settings: 10 μM ibogaine 3 hours
Description: as §1

[4] = system: GDNF; test: GDNF expression in the midbrain after i.p. ibogaine (RT-PCR), mice; assay type: in vivo, mouse; settings: 40 mg/kg i.p., 1, 6 or 12 h post injection
Description: Total RNA was isolated using Trizol reagent and reverse transcribed using Reverse Transcription System kit with the oligo (dT)15 primer at 42ûC for 30 minutes. GDNF, Actin or GPDH expressions were analyzed by RT-PCR. The GDNF primers were based on the coding frame of the human GDNF gene: upstream, 5′-TGCCAGAGGATTATCCTGATCAGTTCG ATG3′ (SEQ ID NO: 1); and downstream, 5′-TTGTCGTACGTTGTCTCAGCTGCATCGCAA-3′ (SEQ ID NO:2). The Actin primers were based on the human Actin gene: upstream, 5′-TCATGAAGTGTGACGTTGACATC-3′ (SEQ ID NO:3); and downstream, 5′-AGAAGCATTTGCGGTGGACGATG-3′ (SEQ ID NO:4). The GPDH primers were based on the rat GPDH gene: upstream, 5′-TGAAGGTCGGTGTCAACGGATTTGGC-3′ (SEQ ID NO:5); and downstream, 5′-CATGTAGGCCATGAGGTCCACCAC-3′ (SEQ ID NO:6). PCR conditions were optimized to specifically ensure that the amplification reactions are within the linear range by testing a range of 25-40 PCR cycles. The optimal numbers of cycles used were: 30 cycles for controls GPDH and actin and 35 cycles for GDNF.
Male C57B16 mice or Long Evans rats were habituated with 3 saline injections over 3 days followed by i.p. administration of 40 mg/kg ibogaine-HCl. The animals were sacrificed 1, 6 or 12 hours post injection, and brain regions were excised and stored at −80° C. until use for analysis of GDNF expression by RT-PCR.

[5] = system: Ret; test: Ret phosphorylation in SHSY5Y cells; assay type: cell-based, human; settings: dose- and time-dependent
Description: as §1, §2

[6] = system: GDNF; test: GDNF secretion into medium of SHSY5Y cells (ELISA); assay type: cell-based, human; settings: 10 μM
Source text: GDNF secretion in the medium was detected using GDNF Emax Immunoassay System according to (Balkowiec and Katz, 2000). GDNF concentration was interpolated from the standard curves (linear range of 15.6-1000 pg/ml).

12-methoxyibogamine [ibogaine] was tested, and the “ethanol-induced increase in TH immunoreactivity” value [1] was “inhibited”, the GFRα1 protein levels [2] was “not due to increased GFRα1 protein levels” and the “Ret association with GFRα1” value [2] was “increased”. The “phosphorylation state of Trk” value [3] was “no change”, the “expression of GDNF in the midbrain” value [4] was “increase” and the Ret phosphorylation [5] was “induced”. For the same substance, the “GDNF levels in the media (secretion)” value [6] was “accumulated in the media in a time-dependent manner”.
